Earlier results in patent US12239727B2, “Compositions for use in the treatment of photosensitivity” (RepoCeuticals A/S, priority 2018, dated 2025).

Conditions: room temperature, solvent DMSO

solubility in DMSO: ≥ 232 mg/mL
SMILES: COc1ccc2[nH]cc(CCNC(C)=O)c2c1 [melatonin, N-acetyl-5-methoxytryptamine]
